Experiments:
[1] = test system: PANC-1 cells; assay: Immunofluorescence staining of RAS localisation; type: cell-based, human; conditions: 18 h, anti-pan RAS antibody, PD3 10 µM, deltarasin 2, 5, 10 µM
From the text: Finally, we investigated whether PD3 changes KRAS localisation by inhibiting the interaction of KRAS with PDEδ in human pancreatic cancer cells. PDEδ binds the farnesylated RAS proteins and stabilises them[19]. Therefore, PDEδ activity leads to the accumulation of RAS at the plasma membrane (PM); conversely, downmodulation of PDEδ enhances RAS diffusion in the cytoplasm. To confirm the effect of PD3 on the relocalization of RAS, we carried out immunofluorescence staining of PANC-1 cells with an anti-RAS antibody (Figure 6). […] Conversely, in the DMSO-treated control group, RAS was mainly localised in the PM of PANC-1 cells. […] It is supposed that PD3 can induce changes in RAS localisation from the plasma membrane by interrupting the protein–protein interaction of KRAS-PDEδ.
Figure 6. Immunofluorescence of PANC-1 cells with an anti-Pan-RAS antibody (red). DMSO was used as a negative control, and deltarasin was used as a positive control. Ex: 633 nm, Em: ≥638 nm. The scale bar represents 20 µm.
PANC-1 cells were seeded with cover slip in a 6-well cell culture plate (SPL life Science, Gyeonggi-do, Republic of Korea) and incubated for 24 h under 37 °C and 5% CO2 prior to the experiment. […] The fluorescence images were detected by confocal microscope (TCS-SP8 confocal laser scanning microscope, Leica, Germany). Fluorescence signal was obtained by excitation at 633 nm and emission at ≥638 nm.

[2] = molecular target: T1, PDEδ (Homo sapiens, UniProt O43924); assay: FP-based competition binding assay using excess deltarasin
T1 construct: made in house; host or cells: E. coli BL21(DE3)
Description: Figure 3. Binding affinities of PDs measured by fluorescence polarisation. (A) Representative binding curve of PDs (PD3) titrated with PDEδ. The FP value was measured in PBS buffer (pH 7.2) containing 8 concentrations (0, 0.5, 1, 2, 4, 8, 16 and 32 μM) of PDEδ mixed with 0.5 μM PDs. Ex: 440 nm, Em: 526 nm; (B) Kd value and half-life of each compound; (C, D) Kinetic trace of PD3 and PD7 in the competition assay. PD3 was shown as a compound with the longest retention time (slow dissociation), whereas PD7 was shown as a compound with the shortest retention time (fast dissociation). The half-life was obtained by a competition binding assay using excess deltarasin. The optimal concentration of PDEδ for the competition assay was determined using the Kd value and PD concentration (0.5 μM) for making more than 68% of the binding complex. Ex: 430 nm, Em: 520 nm. TEXT PRINTED IN THE PICTURE: (A) PD3: Best-fit values Bmax: 261.7; Best-fit values Kd: 0.4991; Std. Error Bmax: 17.98; Std. […] Error Bmax 17.98 (last digit 8 or 6) and Std. Error Kd 0.1956 (5 and 6 not certain) / Panels C and D: k and half-life are printed without a label of their own; assigned to PD3 and PD7 from the panel legends (PDEδ+PD3+Del, PDEδ+PD7+Del)
To confirm that the PD compound occupies the same farnesylation binding site as deltarasin in PDEδ and to exclude the possibility that the FP signal resulted from non-specific hydrophobic interactions, we carried out a FP-based competition assay. PDs (0.5 µM) were incubated with the purified PDEδ protein for 2 h to ensure complete binding between the compound and the protein. Then, deltarasin was added to replace the PD compound in the prenyl binding pocket of PDEδ, which decreased the FP due to the free rotation of the released PD compound. As shown in Figure 3(B), the reverse correlation between Kd values and half-lives was observed (Figure 3(B) and Table 1). […] The rate constants and half-lives were measured only when the increased concentration of deltarasin produced concentration-independent kinetic parameters, which reflects complete displacement of the binding site with the deltarasin. The kinetic trace was fit to a single exponential decay to generate the dissociation rate constant and half-life. Given that the Kd value is a ratio of koff/kon in a simple bimolecular binding model, the measured half-life and Kd are not always matched due to the contribution from the association rate constant. Figure 3(C) (PD3) and 3 D (PD7) show a representative kinetic trace obtained in the competition assay.
Deltarasin, a well-known PDEδ inhibitor, was purchased from Chemietek (Indianapolis, IN) for the competition assay. Assay buffer and the plate were the same as used in fluorescence polarisation assay. The optimal concentration of PDEδ was determined based on the Kd values and ligand concentration (0.5 µM) to ensure the formation of ligand-protein complex. The mixture of PDEδ and compounds were incubated for 2 h at 4 °C. After adding deltarasin to the mixture, FP was immediately recorded by SpectraMax M5 microplate reader (Molecular Devices, San Jose, CA) with excitation at 430 nm and emission at 520 nm. In SpectraMax M5 microplate reader, single excitation and emission wavelengths need to be used for testing all compounds. Therefore, Ex 430/Em 520 was used for competition binding assay. The selected ex/em wavelengths have only a difference of less than 10 nm from the maximum wavelengths, and there was no critical issue for conducting assay. The kinetic trace was fit to a single exponential decay to generate dissociation rate constant and half-life.

Half-life ([2]; representative kinetic trace, single exponential decay): 45 min
koff ([2]; representative kinetic trace, single exponential decay, read-out: dissociation rate constant k (converted)): 0.00025 s⁻¹
Half-life ([2]; retention in PDEδ on displacement by excess deltarasin, 0.5 µM PD, mean ± SD of three independent experiments): 41 ± 6 min
SMILES: Cc1ccc(-c2nc3ccccc3c3cc4ccccn4c23)cc1 [PD3, 6-(p-tolyl)indolizino[3,2-c]quinoline]
RAS localisation at the plasma membrane (PM) [1]: red fluorescence was effectively reduced at the PM
